Assay results taken from patent US20250170108A1, “CHEMOTHERAPY FOR CANCER USING AZABICYCLO COMPOUND” (TAIHO PHARMACEUTICAL CO., LTD., priority 2017, published 2025).

Assays:
[1] = test system: mouse bowel cancer cell line MC38; assay: Antitumor effect of Compound 1 and anti-mouse PD-1 antibody in bowel cancer cell transplanted model (Example 1); format: in vivo; conditions: for RTV Day 22 (mean ± SD): MC38 transplanted mice; for T/C (%): Day 22
Experimental: (§1) Mouse bowel cancer cell line MC38 was obtained from Dr. Yoshihiro Hayakawa (University of Toyama, Toyama, Japan), and cultured in a RPMI1640 (Sigma-Aldrich) medium (culture solution) containing 10% fetal bovine serum (FBS). MC38 was subcultured at a ratio of 1:3 to 1:5 once or twice a week in an incubator with 5% CO2 at 37° C.
(§2) A cell suspension with a concentration of 2×10^6 cells/0.1 mL was transplanted subcutaneously in the vicinity of the right backmost rib bone of a 6-week-old C57BL/6JJcI mouse (CLEA Japan, Inc.).
(§3) The tumor was grown until reaching a tumor volume (TV) of 50 to 300 mm^3 after the transplantation. Degimatic Caliper was used for tumor diameter measurement. The major diameter and the minor diameter of the tumor were measured, and TV was calculated from the following equation.
(§4) By a stratified random allocation method using TV as an index, 6 animals were allocated to each group. The day when grouping (n=6) was performed was defined as Day 0.
(§5) The relative tumor volume (RTV) and the relative tumor volume change ratio (T/C) were calculated from TV.
RTV and T/C were calculated from the following equation.
(§6) An appropriate amount of water for injection described in the Japanese Pharmacopeia was added for adjusting hypromellose concentration to 0.5 w/v %, and the mixture was then stirred with a stirrer to completely dissolve hypromellose, to prepare a 0.5% aqueous hypromellose solution. Compound 1 was ground with an agate mortar, and then suspended to a predetermined concentration with the 0.5% aqueous hypromellose solution, and ultrasonic treatment was performed to obtain a homogeneous suspension. The suspension containing Compound 1 was orally administered once a day over 5 consecutive days at a dose of 10 mg/kg/day or 14 mg/kg/day, followed by cessation of administration for 2 days, and these processes were repeated three times.
(§7) The anti-mouse PD-1 antibody (anti-mPD-1 Ab) was prepared by diluting InVivoMab anti-mouse PD-1 (CD279) (Clone: RMP-1-14, Bio X cell Co.) to a predetermined concentration with Otsuka Normal Saline immediately before administration. On the first day of administration (day 1), the diluted product was intraperitoneally administered as the anti-mouse PD-1 antibody at a dose of 0.05 mg/body.

[2] = Body weight change ratio in MC38 transplanted model (Example 1); format: in vivo, mouse
Experimental: (§8) An electronic balance for animals was used for body weight measurement. The body weight change ratio on the nth day (BWCn) was calculated from the body weight on the nth day (BWn) in accordance with the following equation.
as §6, §7

[3] = test system: tumor infiltrating leucocytes (CD8 positive cells, regulatory T-cells); assay: Immunostimulatory action: flow cytometric analysis of tumor infiltrating lymphocytes in MC38 transplanted model (Example 2); format: in vivo, mouse
Experimental: Mouse bowel cancer cell line MC38 was cultured using a RPMI1640 (Waco Pure Chemical Industries, Ltd.) medium containing 10% FBS. MC38 was subcultured at a ratio of 1:5 to 1:10 once or twice a week in an incubator with 5% CO2 at 37° C.
A cell suspension with a concentration of 2×10^6 cells/0.1 mL was transplanted subcutaneously in the vicinity of the right backmost rib bone of a 6-week-old C57BL/6NJCrI mouse (Charles River Laboratories Japan Inc.).
The tumor was grown until reaching a tumor volume (TV) of 110 to 360 mm^3 after the transplantation. Degimatic Caliper was used for tumor diameter measurement. The major diameter and the minor diameter of the tumor were measured, and TV was calculated from the following equation.
By a stratified random allocation method using TV as an index, 5 animals were allocated to each group. The day when grouping (n=5) was performed was defined as Day 1.
Agents prepared by the same method as described in Example 1 were used for administration. Anti-mouse PD-1 antibody (anti-mPD-1 Ab), CD279(PD-1)Monoclonal Antibody (RMP1-14), eBioscience (Thermo Fisher Scientific), was used as an anti-mouse PD-1 antibody, and intraperitoneally administered at a dose of 0.05 mg/body on the first day of administration (Day 1). Compound 1 was orally administered at a dose of 14 mg/kg/day once a day on Days 1-5 and 8-9.
For detecting expression of immunity-related factors, flow cytometric analysis was performed for immunological monitoring. On Day 10, the tumor was sampled, and tumor infiltrating lymphocytes were then prepared using Tumor Dissociation Kit, mouse (Miltenyi Biotec). Thereafter, the antibody was stained using FoxP3/Transcription Factor Staining Buffer Set (thermo Fisher Scientific), and analysis was then performed using Flow Cytometer FACSVerse (BD Bioscience). […]

[4] = test system: mouse bowel cancer cell line MC38; assay: Antitumor effect of Compound 1 and anti-mouse PD-L1 or anti-mouse CTLA-4 antibody in bowel cancer cell transplanted model (Example 3); format: in vivo
Experimental: as §1, §2, §3, §4, §5, §6
The same procedure as described in Example 1 was carried out except that the anti-mouse PD-L1 antibody or the anti-CTLA-4 antibody was used instead of the anti-mouse PD-1 antibody. […]

[5] = Body weight change ratio in MC38 transplanted model (Example 3); format: in vivo, mouse; conditions: Compound 1 14 mg/kg/day p.o. days 1-5, 8-12, 15-19
Experimental: as §8
The same procedure as described in Example 1 was carried out except that the anti-mouse PD-L1 antibody or the anti-CTLA-4 antibody was used instead of the anti-mouse PD-1 antibody.
The anti-mouse PD-L1 antibody (anti-mPD-L1 Ab) was prepared by diluting InVivoMab anti-mouse PD-L1 (B7-H1) (Clone: 10F.9G2, Bio X cell Co.) to a predetermined concentration with Otsuka Normal Saline immediately before administration. On the first day of administration (day 1), the diluted product was intraperitoneally administered using the anti-mouse PD-L1 antibody at a dose of 0.05 mg/body. The anti-mouse CTLA-4 antibody (anti-mCTLA-4 Ab) was prepared by diluting InVivoMab anti-mouse CTLA-4 (CD152) (Clone: 9H10, Bio X cell Co.) to a predetermined concentration with Otsuka Normal Saline immediately before administration. On the first day of administration (day 1), the diluted product was intraperitoneally administered using the anti-mouse CTLA-4 antibody at a dose of 0.05 mg/body.

[6] = Compound 1 10 mg/kg/day p.o. days 1-5, 8-12, 15-19
[7] = Compound 1 14 mg/kg/day p.o. days 1-5, 8-12, 15-19
[8] = Day 10, Compound 1 14 mg/kg/day p.o. Days 1-5 and 8-9, Dunnett test

In the case of `CCc1cc(C(N)=O)ccc1-n1nc(C(C)C)c2c(-n3cnc(-c4cnn(C)c4)c3)ccnc21` [Compound 1, 3-ethyl-4-{3-isopropyl-4-(4-(1-methyl-1H-pyrazol-4-yl)-1H-imidazol-1-yl)-1H-pyrazolo[3,4-b]pyridin-1-yl}benzamide], the “RTV on Day 22 as compared to the control group” value ([1]; Aspin-Welch's t-test, Example 1) is reported as “significantly lower RTV”, the “RTV Day 22 (mean ± SD)” value [1, 6] is reported as 7.93 ± 1.29 and the “RTV Day 22 (mean ± SD)” value [1, 7] is reported as 5.59 ± 0.92. The “T/C (%)” value [1, 6] was 41.7%, the “T/C (%)” value [1, 7] was 29.4% and the “BWC(%) Day 22 Mean” value [2, 6] was 13.5%. For the same compound, the “BWC(%) Day 22 Mean” value [2, 7] was 12.8%, the “ratio of CD8 positive cells in leucocytes (CD45 positive cells) as compared to the control group” value [3, 8] was “significantly higher” and the “ratio of regulatory T-cells in T-cells as compared to the control group” value [3, 8] was “significantly lower”. For the same compound, the immunostimulatory activity ([3]; conclusion from Example 2) was “shows immunostimulatory activity”, the “RTV on Day 22 as compared to the control group” value ([4]; Aspin-Welch's t-test, Example 3) was “significantly lower RTV” and the “RTV Day 22 (mean ± SE)” value ([4]; Compound 1 14 mg/kg/day p.o. days 1-5, 8-12, 15-19, MC38 transplanted mice) was 8.32 ± 0.51. For the same compound, the “T/C (%)” value ([4]; Day 22, Compound 1 14 mg/kg/day p.o. days 1-5, 8-12, 15-19) was 49.7% and the “BWC(%) Day 22 Mean” value [5] was 6.63%.
